Converted amounts (≈) assume the structure as drawn. Like-named read-outs stand apart in the source and are kept apart here. Marks after values point to notes of the source that are not given here. A value given as a limit tells only on which side of the number the result lay.

For one series, the system named is P. aeruginosa/VIM-2. As to the kind of experiment: Microbroth dilution MIC. Format: cell-based. The settings on record: Pseudomonas aeruginosa, read-out: MIC alone. As to the method:
(§1) Day 1: • Plate bacterial strain(s) on appropriate media: • Gram-negative bacteria with ESBLs or carbapenemases: green agar plates with 100 mg/L ampicillin • Gram-negative bacteria without β-lactamases: green agar plates • Gram-positive bacteria (Staphylococci and Enterococci): blood agar plates • Incubate o.n. at 37° C.
(§2) Prepare the Bacterial Inoculum: • Prepare a 0.5 McFarland suspension of bacteria in 0.85% NaCl. (Should be used within 15 min of preparation). • Dilute the 0.5 McFarland suspension 1:100 into MH broth.
(§3) Check the inoculum by diluting the prepared bacterial suspension 1:100 (10 μl bacterial suspension+990 μl 0.85% NaCl). Plate 10 μl of the dilution on MH agar plates (×2). Incubate o.n. at 37° C., count the colonies and calculate the final CFU/ml inoculum in the plate by multiplying the average number of colonies with 10000 and divide by 2. The final inoculum should be between 3-7×10^5 CFU/ml. • Add 50 μl of the prepared bacterial suspension to each well in the microtiter plate except negative growth control.
(§4) Preparation of Compounds/Antibiotics • Calculate the desired concentration-range and volume of the compounds/antibiotics in the assay. For antibiotics this will depend on the MIC to meropenem of the bacterial strains to be tested. Dilute the stock solution in MH broth. Make subsequent 2-fold dilutions in MH broth of the desired concentrations if a concentration range is to be tested (remember the extra dilution factor in the assay plate). Always include extra volume for pipetting. Take into consideration stock solutions that are made in buffers that have an effect on bacterial growth (e.g. DMSO).
(§5) This experimental design was used for the results in Tables 4 and 5 below. In Table 4, inhibitor concentration dependency on the MIC of meropenem was studied.

The next series relates to K. pneumoniae/NDM-1. Briefly: Microbroth dilution MIC. The class given is cell-based. The settings on record: Klebsiella pneumoniae; S4 K. pneumoniae/NDM-1; substance alone. The procedure: as §1, §2, §3, §4, §5
In a further series the test system is K. pneumoniae/KPC-2. Briefly: Microbroth dilution MIC. Format: cell-based. The settings on record: Klebsiella pneumoniae; S6 K. pneumoniae/KPC-2; substance alone. As to the method: as §1, §2, §3, §4, §5
(In broth dilution the organism is exposed to a series of concentrations in liquid medium.)

Another series has as its system K. pneumoniae (17A2). As to the kind of experiment: Microbroth dilution MIC. Format: cell-based. The settings on record: Klebsiella pneumoniae; S2 K. pneumoniae (17A2), lacking metallo-β-lactamase; substance alone. The procedure: as §1, §2, §3, §4, §5
In the next series the test system is P. aeruginosa (16H5). Briefly: Microbroth dilution MIC. The class given is cell-based. The settings on record: Pseudomonas aeruginosa; S1 P. aeruginosa (16H5), lacking metallo-β-lactamase; substance alone. The procedure: as §1, §2, §3, §4, §5
For another series, the system named is E. coli/OXA-48. Briefly: Microbroth dilution MIC. The class given is cell-based. The settings on record: Escherichia coli, read-out: MIC alone. As to the method:
as §1, §2, §3, §4, §5

The test system of another series is A.baumannii/OXA-23. As to the kind of experiment: Microbroth dilution MIC. Format: cell-based. The settings on record: Acinetobacter baumannii; S7 A.baumannii/OXA-23; substance alone. The procedure:
as §1, §2, §3, §4, §5

Series [1] can be described thus: Parallel artificial membrane permeability assay (PAMPA). The settings on record: PAMPA, 50 μM in PBS, room temperature, five hours. (PAMPA measures passive passage across an artificial lipid membrane.)
In the next series the test system is IPC-81 rat AML cells. Briefly: Anti-AML activity, WST-1 viability (Example 72). Format: cell-based. The settings on record: IPC81, 24 h. The procedure, abridged: (§6)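 Rat IPC-81 cells in DMEM with 10% horse serum and Molm13 cells in RPMI with 10% FBS, seeded at 150 000 cells/ml with compound dilution series. After 22 h exposure, WST-1 added for a further 2 h; absorbance read at 450 nm (620 nm reference) as viability.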
On the technique in general: Tetrazolium dyes change colour on reduction, which living cells bring about.

A further series has as its system Molm13 cells. Briefly: Anti-AML activity, WST-1 viability (Example 72). The class given is cell-based. The settings on record: Homo sapiens, Molm 13 cells, WST-1. The procedure, abridged: as §6
Series [2] concerns human acute myeloid leukemia cell line MOLM-13. As to the kind of experiment: Cytotoxicity, WST-1 and nuclear morphology (Example 73). The class given is cell-based. The settings on record: Homo sapiens. Put shortly: (§7)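 MOLM-13 (RPMI/FBS), NRK and H9c2 (DMEM/10% FBS) cells under 2% or 20% O2 at 37° C were exposed to analogues for 24 h (≤1% DMSO). Viability was read by WST-1, and cell death by Hoechst 33342 nuclear morphology; EC50 came from four-parameter regression.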

Series [3] relates to rat cardiomyoblast (H9c2) cells. The description is as above. Format: cell-based. The settings on record: Rattus norvegicus; H9c2, 19% O2, 24 hours of incubation; read-out: EC50 (μM) H9c2 19% O2. Put shortly: as §7
Series [4] has as its system normal rat kidney epithelial (NRK) cells. The description is as above. The class given is cell-based. The settings on record: Rattus norvegicus. Put shortly: as §7
For series [5] the following is noted: all solvents; background statement; cited from earlier work.
A further series relates to hepG2. As to the kind of experiment: Cytotoxicity (Example 73, Table 2). The class given is cell-based. The settings on record: Homo sapiens; hepG2, 24 hours of incubation; read-out: EC50 (μM) hepG2.
Series [6] has as its system methicillin-resistant S. aureus MRSA A4-37. As to the kind of experiment: Microbroth dilution MIC. The settings on record: compound alone. The class given is cell-based. The procedure:
as §1, §2, §3, §4, §5

The subject of series [7] is vancomycin-resistant E. faecium vanA A1-22. Briefly: Microbroth dilution MIC. The class given is cell-based. The settings on record: compound alone. The procedure:
as §1, §2, §3, §4, §5

The mark [8] stands for this setting: 20% O2, 24 h of incubation, read-out: Molm 13 IC50 20% O2.
Where [9] appears, read: MOLM-13, 2% O2, 24 hours of incubation, read-out: EC50 (μM) MOLM-13 2% O2.
Where [10] appears, read: MOLM-13, 19% O2, 24 hours of incubation, read-out: EC50 (μM) MOLM-13 19% O2.
[11] abbreviates: 2% O2, 24 hours of incubation, read-out: EC50 (μM) NRK 2% O2.
Where [12] appears, read: 19% O2, 24 hours of incubation, read-out: EC50 (μM) NRK 19% O2.

Broadly, the MIC is the lowest concentration found to suppress growth. With `C[C@@H](O)[C@H]1C(=O)N2C(C(=O)O)=C(S[C@@H]3CN[C@H](C(=O)N(C)C)C3)[C@H](C)[C@H]12` [MEM, meropenem, reference compound], the MIC with P. aeruginosa/VIM-2 (S3 P. aeruginosa/VIM-2, substance alone) is 32 µg/mL (≈ 83.4 µM); against K. pneumoniae/NDM-1, 64 µg/mL (≈ 167 µM); against K. pneumoniae/KPC-2, greater than 64 µg/mL; with K. pneumoniae (17A2) it was 8 µg/mL (≈ 20.9 µM); against P. aeruginosa (16H5) it was greater than 64 µg/mL; in the series on E. coli/OXA-48, 1 µg/mL (≈ 2.61 µM). The MIC in the series on A.baumannii/OXA-23 is greater than 64 µg/mL.

The IC50 is the concentration needed to halve the response being measured. The EC50 is the concentration needed to bring the measured effect to its halfway point. `[O-][n+]1c2cccc(O)c2[n+]([O-])c2cccc(O)c21` [Example 1c, 1,6-dihydroxyphenazine 5,10-dioxide, reference compound]: in series [1], the LogPeff is −5.46*. The IC50 in the series with IPC-81 rat AML cells (read-out: IPC-81 IC50 2% O2) was 0.51 µM; in the series with IPC-81 rat AML cells (read-out: IPC-81 IC50 20% O2), 1.3 µM; with Molm13 cells (2% O2, 24 h of incubation, read-out: Molm 13 IC50 2% O2), 0.27 µM; in the series with Molm13 cells (setting [8]), 0.3 µM. The 50% effective concentration (EC50) in [2] (setting [9]) was 0.79 ± 0.1 µM; in series [2] (setting [10]) it was 2 ± 0.07 µM; in series [3], greater than 50 µM; in [4] (setting [11]) it was greater than 50 µM; in series [4] (setting [12]), greater than 50 µM; in the series with hepG2, greater than 250 µM. The solubility entry in series [5] is given as “practically insoluble in all solvents”.

For `CCOC(=O)COc1cccc2c1[n+]([O-])c1ccccc1[n+]2[O-]` [Example 6a, 1-(2-ethoxy-2-oxoethoxy)phenazine 5,10-dioxide], the MIC is 39.3 µg/mL (≈ 125 µM) in the series with P. aeruginosa/VIM-2; 19.6 µg/mL (≈ 62.4 µM) with K. pneumoniae/NDM-1; 9.7 µg/mL (≈ 30.9 µM) in the series on K. pneumoniae/KPC-2; 2.5 µg/mL (≈ 7.95 µM) in the series with E. coli/OXA-48; 5 µg/mL (≈ 15.9 µM) against A.baumannii/OXA-23. Also, the MIC A4-37 S. aureus MRSA in [6] is less than 0.5 µg/mL. Besides, the MIC A1-22 E. faecium vanA in [7] came to 4 µg/mL (≈ 12.7 µM). The IC50 with Molm13 cells (setting [8]) was 0.11 µM. The concentration giving a half-maximal response (EC50) is 1.7 ± 0.29 µM in series [2] (setting [9]); 1.5 ± 0.14 µM in series [2] (setting [10]); 20 ± 2.9 µM in series [3]; 25 ± 0.2 µM in series [4] (setting [11]); 26 ± 0.8 µM in [4] (setting [12]); 75 µM with hepG2.

The values are drawn from patent US11958842B2, “Substituted phenazines and methods of treating cancer and bacterial diseases” (Adjutec Pharma AS, priority 2016, dated 2024).
